Earlier results, collected in patent publication EP2749553A1, “Process for preparation of enantiomerically pure S-(+)-N, N-dimethyl-a-[2-(naphthalenyloxy)ethyl] benzenemethanamine” (Deva Holding Anonim Sirketi, priority 2012, dated 2014).

What was measured:
[1] = clinical studies; (S)- versus (R)-enantiomer
[2] = free base

- in vivo absorption (free base): low
- initial plasma half life (plasma): about 1 h
- initial half-life (rapid elimination): 1 to 2 h
- in vivo solubility [2]: poor
- water solubility [2]: poor
Structure (SMILES): CN(C)[C@@H](CCOc1cccc2ccccc12)c1ccccc1 [Dapoxetine, S-(+)-N, N-dimethyl-a-[2-(naphthalenyloxy)ethyl] benzenemethanamine]
- times more potent than (R)-enantiomer [1]: 3.5 times
